According to US20250289804A1, “SUBSTITUTED INDOLE COMPOUNDS AND METHODS OF USE THEREOF” (NOVARTIS PHARMA AG, priority 2021, published 2025):
Like-named read-outs stand apart in the source and are kept apart here.

Tests used:
human C3bBb = human C3bBb (Homo sapiens (Human), UniProt P00751); assay: Human C3bBb enzyme assay (C3a generation from C3, ELISA); type: biochemical; details: read-out: Human C3b:Bb IC50 Avg
Experimental: Compounds disclosed herein were evaluated for their potency to inhibit human C3bBb in a biochemical assay. To generate active C3bBb complex in vitro, purified human C3b (Complement Technology, A114), CFB (Complement Technology, A135) and CFD (Complement Technology, A136) were mixed in a 1:1:1 ratio to a final concentration of 1 μM each in the C3bBb assay buffer (PBS pH 7.4, 100 μM NiCl2, 0.05% (w/v) CHAPS). The reaction mix was incubated at room temperature for 30 minutes on a rotating platform. […] On the day of the enzyme assay, a reaction mixture containing 3 nM C3bBb complex and 1 μM purified human C3 (Complement Technology, A113) was prepared in the C3bBb assay buffer. Compounds were serial diluted 3-fold in 100% DMSO for a 10-point dose-response curve. A 0.5 μL aliquot of diluted compound solution was transferred to a conical bottom 96-well plate, before 49.5 μL of the reaction mix was added to each well to initiate the reaction. The plate was incubated for 1 hour at room temperature. […] The generation of C3a from C3 by the C3bBb complex was measured using the MicroVue C3a Plus EIA ELISA kit (Quidel, A031). The concentration of C3a from each well was calculated using a standard curve. Percent inhibition values were generated using the baseline (C3 only) and the maximum control (DMSO instead of compound), and IC50 of each compound was calculated using 4-parameter logistic regression.

[1] = test system: MAC formation in normal human serum; assay: Human serum MAC formation assay (zymosan-coated plates, 50% normal human serum); details: 50% normal human serum with EGTA, 37° C. 30 minutes
Experimental: MAC deposition assay using normal human serum was applied to evaluate compound potency under physiologically relevant conditions. Black Maxisorp plates (Thermo Fisher, 437111) were coated with preactivated zymosan (Complement Technology, B400) at 0.5 mg/mL in carbonate buffer (pH 9.5, Sigma, C3041) at room temperature overnight. Compounds were serial diluted 3-fold in 100% DMSO for a 10-point dose-response curve. Normal human serum (Complement Technology, NHS) was diluted to 50% (v/v) with the gelatin buffer (4.2 mM HEPES pH 7.4, 0.15 mM CaCl2, 141 mM NaCl, 4.5 mM MgCl2, 0.1% gelatin) containing 20 mM EGTA or 20 mM EDTA. In conical bottom 96-well plates, 1 μL compound and 99 μL of serum-EGTA were mixed. Serum-EDTA was used as baseline control. The serum-compound mixture was incubated at room temperature for 15 minutes before being transferred to the washed zymosan plate for complement activation at 37° C. for 30 minutes. The reaction was terminated by decanting the reaction mixture and adding blocking buffer (Thermo Fisher, 37539) for 20 minutes. MAC formation on the ELISA plate was detected using 0.2 μg/mL mouse anti-human C9 neoepitope monoclonal antibody (Thermo Fisher, MA5-33373) diluted in phosphate-buffered saline with 0.05% Tween-20 (PBST). A goat anti-mouse IgG-HRP antibody (Thermo Fisher, A16072) was used at 1:2000 in PBST as secondary antibody. After washing, the reaction was developed using QuantaBlu (Thermo Fisher, 15169) for 20 minutes at room temperature. The plates were read at 325 nm excitation and 420 nm emission wavelengths. Percent inhibition values were generated using the baseline (EDTA-serum) and the maximum control (EGTA-serum). An IC50 for each compound was calculated using 4-parameter logistic regression.

[2] = starred values: assay conducted with 1 nM C3b:Bb enzyme
[3] = 3 nM C3bBb complex, 1 μM human C3, 1 hour room temperature

Chain of human C3bBb (P00751 260-764): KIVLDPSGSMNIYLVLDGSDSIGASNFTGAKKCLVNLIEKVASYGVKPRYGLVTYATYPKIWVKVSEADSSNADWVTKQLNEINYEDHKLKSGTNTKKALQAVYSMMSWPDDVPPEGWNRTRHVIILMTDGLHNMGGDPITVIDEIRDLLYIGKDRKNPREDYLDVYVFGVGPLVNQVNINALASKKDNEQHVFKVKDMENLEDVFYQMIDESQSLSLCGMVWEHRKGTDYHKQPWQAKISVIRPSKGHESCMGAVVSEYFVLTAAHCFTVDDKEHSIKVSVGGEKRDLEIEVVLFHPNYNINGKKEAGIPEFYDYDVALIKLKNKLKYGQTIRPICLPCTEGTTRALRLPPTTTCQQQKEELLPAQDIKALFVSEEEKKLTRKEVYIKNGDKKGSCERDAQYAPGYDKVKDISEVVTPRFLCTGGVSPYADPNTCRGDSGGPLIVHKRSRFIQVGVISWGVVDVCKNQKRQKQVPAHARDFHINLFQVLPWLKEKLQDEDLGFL
Chain of human C3bBb (P01024 23-667 partner): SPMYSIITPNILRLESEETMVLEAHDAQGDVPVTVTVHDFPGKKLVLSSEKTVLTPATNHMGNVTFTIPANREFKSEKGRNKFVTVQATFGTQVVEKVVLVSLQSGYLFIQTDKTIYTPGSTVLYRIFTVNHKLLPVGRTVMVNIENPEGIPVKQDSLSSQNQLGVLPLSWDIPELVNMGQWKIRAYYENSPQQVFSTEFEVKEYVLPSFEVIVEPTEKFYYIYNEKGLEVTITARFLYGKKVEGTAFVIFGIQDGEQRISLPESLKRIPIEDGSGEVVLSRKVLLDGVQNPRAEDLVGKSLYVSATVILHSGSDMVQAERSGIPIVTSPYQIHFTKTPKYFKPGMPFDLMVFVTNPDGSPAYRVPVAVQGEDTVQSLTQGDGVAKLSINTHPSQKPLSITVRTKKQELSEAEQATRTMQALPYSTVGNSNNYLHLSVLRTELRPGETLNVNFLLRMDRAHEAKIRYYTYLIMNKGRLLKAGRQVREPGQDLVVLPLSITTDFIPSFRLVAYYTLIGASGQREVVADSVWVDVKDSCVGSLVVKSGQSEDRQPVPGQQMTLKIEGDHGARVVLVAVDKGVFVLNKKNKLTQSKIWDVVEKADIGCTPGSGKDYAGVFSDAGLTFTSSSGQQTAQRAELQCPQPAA
Chain of human C3bBb (P01024 749-1663 partner): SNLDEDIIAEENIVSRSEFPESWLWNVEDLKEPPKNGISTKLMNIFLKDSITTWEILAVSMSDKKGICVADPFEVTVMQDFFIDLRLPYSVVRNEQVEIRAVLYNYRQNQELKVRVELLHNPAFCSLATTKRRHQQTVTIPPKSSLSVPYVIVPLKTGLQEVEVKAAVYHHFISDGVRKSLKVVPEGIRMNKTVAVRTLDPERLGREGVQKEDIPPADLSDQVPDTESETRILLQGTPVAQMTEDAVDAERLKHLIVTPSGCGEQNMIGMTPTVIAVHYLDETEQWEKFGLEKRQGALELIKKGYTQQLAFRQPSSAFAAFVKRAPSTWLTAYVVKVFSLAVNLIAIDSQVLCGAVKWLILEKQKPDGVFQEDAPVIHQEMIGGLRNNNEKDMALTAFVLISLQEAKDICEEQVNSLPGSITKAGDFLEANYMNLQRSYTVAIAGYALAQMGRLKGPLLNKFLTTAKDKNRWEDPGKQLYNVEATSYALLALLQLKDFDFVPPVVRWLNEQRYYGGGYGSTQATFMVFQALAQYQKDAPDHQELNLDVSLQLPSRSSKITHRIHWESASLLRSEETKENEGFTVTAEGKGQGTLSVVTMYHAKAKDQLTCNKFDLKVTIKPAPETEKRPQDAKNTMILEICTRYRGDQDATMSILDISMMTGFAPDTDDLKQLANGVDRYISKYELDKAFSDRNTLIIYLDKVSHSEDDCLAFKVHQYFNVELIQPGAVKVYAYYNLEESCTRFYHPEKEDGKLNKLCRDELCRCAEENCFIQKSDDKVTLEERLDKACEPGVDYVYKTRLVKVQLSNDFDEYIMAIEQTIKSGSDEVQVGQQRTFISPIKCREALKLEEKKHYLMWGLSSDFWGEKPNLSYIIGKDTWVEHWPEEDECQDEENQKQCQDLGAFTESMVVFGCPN

SMILES | IC50 (human C3bBb; [2]) | IC50 [1] | IC50 (human C3bBb; [3])
COc1cc(C)c2[nH]ccc2c1CN1CCC2(CC(=O)C2)C[C@H]1c1ccc(C(=O)O)cc1 [Example 58, (S)-4-(7-((5-methoxy-7-methyl-1H-indol-4-yl)methyl)-2-oxo-7-azaspiro[3.5]nonan-6-yl)benzoic acid] | < 10 nM | 100 to 200 nM | 
COc1cc(C)c2[nH]ccc2c1CN1CCC2(C[C@H]1c1ccc(C(=O)O)cc1)CC(F)(F)C2 [Example 45, (S)-4-(2,2-difluoro-7-((5-methoxy-7-methyl-1H-indol-4-yl)methyl)-7-azaspiro[3.5]nonan-6-yl)benzoic acid] | < 10 nM | < 100 nM | 
Cc1cc(C2CC2)c(CN2CC[C@H](N3CC(C#N)C3)C[C@H]2c2ccc(C(=O)O)cc2)c2cc[nH]c12 [Example 77, 4-((2S,4S)-4-(3-cyanoazetidin-1-yl)-1-((5-cyclopropyl-7-methyl-1H-indol-4-yl)methyl)piperidin-2-yl)benzoic acid] | < 10 nM | < 100 nM | 
COc1cc(C)c2[nH]ccc2c1CN1CC[C@H](OC2COC2)C[C@H]1c1ccc(C(=O)O)cc1 [Example 82, 4-((2S,4S)-1-((5-methoxy-7-methyl-1H-indol-4-yl)methyl)-4-(oxetan-3-yloxy)piperidin-2-yl)benzoic acid] | 10 to 25 nM | 200 to 300 nM | 
COc1cc(C)c2[nH]ccc2c1CN1CCC2(COC2)C[C@H]1c1ccc(C(=O)O)cc1 [Example 32, (S)-4-(7-((5-methoxy-7-methyl-1H-indol-4-yl)methyl)-2-oxa-7-azaspiro[3.5]nonan-6-yl)benzoic acid] | < 10 nM | < 100 nM | 
COc1cc(C)c2[nH]ccc2c1CN1CC[C@H](n2cc(Cl)cn2)C[C@H]1c1ccc(C(=O)O)cc1 [Example 8] | < 10 nM | < 100 nM | 
COc1cc(C)c2[nH]ccc2c1CN1CC[C@H](n2cncn2)C[C@H]1c1ccc(C(=O)O)cc1 (racemic) [Example 3, (±)-trans-4-(1-((5-methoxy-7-methyl-1H-indol-4-yl)methyl)-4-(1H-1,2,4-triazol-1-yl)piperidin-2-yl)benzoic acid] |  | > 500 nM | 10 to 25 nM
COc1cc(C)c2[nH]ccc2c1CN1CC[C@]2(C[C@H]1c1ccc(C(=O)O)cc1)C[C@@H](OC(F)F)C2 (single isomer, unassigned) [Example 57, 4-((2R,4s,6S)-2-(difluoromethoxy)-7-((5-methoxy-7-methyl-1H-indol-4-yl)methyl)-7-azaspiro[3.5]nonan-6-yl)benzoic acid or 4-((2S,4r,6S)-2-(difluoromethoxy)-7-((5-methoxy-7-methyl-1H-indol-4-yl)methyl)-7-azaspiro[3.5]nonan-6-yl)benzoic acid] | < 10 nM | < 100 nM | 
COc1cc(C)c2[nH]ccc2c1CN1CCN(CCF)C[C@H]1c1ccc(C(=O)O)cc1 [Example 70, (R)-4-(4-(2-fluoroethyl)-1-((5-methoxy-7-methyl-1H-indol-4-yl)methyl)piperazin-2-yl)benzoic acid] | 25 to 50 nM | 200 to 300 nM | 
COc1cc(C)c2[nH]ccc2c1CN1CC[C@H](n2cc3ccccc3n2)C[C@H]1c1ccc(C(=O)O)cc1 (racemic) [Example 6, (±)-trans-4-(4-(2H-indazol-2-yl)-1-((5-methoxy-7-methyl-1H-indol-4-yl)methyl)piperidin-2-yl)benzoic acid] |  | > 500 nM | 
COc1cc(C)c2[nH]ccc2c1CN1CC[C@]2(C[C@H]1c1ccc(C(=O)O)cc1)C[C@@H](F)C2 [Example 61, 4-((2S,4r,6S)-2-fluoro-7-((5-methoxy-7-methyl-1H-indol-4-yl)methyl)-7-azaspiro[3.5]nonan-6-yl)benzoic acid and 4-((2R,4s,6S)-2-fluoro-7-((5-methoxy-7-methyl-1H-indol-4-yl)methyl)-7-azaspiro[3.5]nonan-6-yl)benzoic acid] | < 10 nM | < 100 nM | 
COc1cc(C)c2[nH]ccc2c1CN1CC[C@H](NC23CC(C2)C3)C[C@H]1c1ccc(C(=O)O)cc1 [Example 21, 4-((2S,4S)-4-(bicyclo[1.1.1]pentan-1-ylamino)-1-((5-methoxy-7-methyl-1H-indol-4-yl)methyl)pyiperidin-2-yl)benzoic acid] |  | 100 to 200 nM | > 100 nM
COc1cc(C)c2[nH]ccc2c1CN1CC[C@H](NCC2(C(F)(F)F)CC2)C[C@H]1c1ccc(C(=O)O)cc1 [Example 27, 4-((2S,4S)-1-((5-methoxy-7-methyl-1H-indol-4-yl)methyl)-4-(((1-(trifluoromethyl)cyclopropyl)methyl)amino)piperidin-2-yl)benzoic acid] |  | 100 to 200 nM | 
COc1cc(C)c2[nH]ccc2c1CN1CC[C@H](n2cc(C(F)F)cn2)C[C@H]1c1ccc(C(=O)O)cc1 (racemic) [Example 7, (±)-trans-4-(4-(4-(difluoromethyl)-1H-pyrazol-1-yl)-1-((5-methoxy-7-methyl-1H-indol-4-yl)methyl)piperidin-2-yl)benzoic acid] | < 10 nM | 100 to 200 nM | 
COc1cc(C)c2[nH]ccc2c1CN1CC[C@H](N2CC(C#N)C2)C[C@H]1c1ccc(C(=O)O)cc1 [Example 73, 4-((2S,4S)-4-(3-cyanoazetidin-1-yl)-1-((5-methoxy-7-methyl-1H-indol-4-yl)methyl)piperidin-2-yl)benzoic acid] | < 10 nM | 100 to 200 nM | 
COc1cc(C)c2[nH]ccc2c1CN1CC[C@H](OCC(F)F)C[C@H]1c1ccc(C(=O)O)cc1 [Example 83, 4-((2S,4S)-4-(2,2-difluoroethoxy)-1-((5-methoxy-7-methyl-1H-indol-4-yl)methyl)piperidin-2-yl)benzoic acid] | < 10 nM | 100 to 200 nM | 
COc1cc(C)c2[nH]ccc2c1CN1CCN(CCC(F)(F)F)C[C@H]1c1ccc(C(=O)O)cc1 [Example 68, (R)-4-(1-((5-methoxy-7-methyl-1H-indol-4-yl)methyl)-4-(3,3,3-trifluoropropyl)piperazin-2-yl)benzoic acid] | < 10 nM | 100 to 200 nM | 
COc1cc(C)c2[nH]ccc2c1CN1CC[C@]2(CCC(F)(F)C2)C[C@H]1c1ccc(C(=O)O)cc1 (single isomer, unassigned) [Example 36, 4-(5R,7S)-(2,2-difluoro-8-((5-methoxy-7-methyl-1H-indol-4-yl)methyl)-8-azaspiro[4.5]decan-7-yl)benzoic acid or 4-(5S,7S)-(2,2-difluoro-8-((5-methoxy-7-methyl-1H-indol-4-yl)methyl)-8-azaspiro[4.5]decan-7-yl)benzoic acid] | < 10 nM | < 100 nM | 
COc1cc(C)c2[nH]ccc2c1CN1CC[C@@]2(CCOC2)C[C@H]1c1ccc(C(=O)O)cc1 (single isomer, unassigned) [Example 34, 4-((5S,7S)-8-((5-methoxy-7-methyl-1H-indol-4-yl)methyl)-2-oxa-8-azaspiro[4.5]decan-7-yl)benzoic acid or 4-((5R,7S)-8-((5-methoxy-7-methyl-1H-indol-4-yl)methyl)-2-oxa-8-azaspiro[4.5]decan-7-yl)benzoic acid] | < 10 nM | 100 to 200 nM | 
COc1cc(C)c2[nH]ccc2c1CN1CC[C@H](C2CC2)C[C@H]1c1ccc(C(=O)O)cc1 [Example 41, 4-((2S,4S)-4-cyclopropyl-1-((5-methoxy-7-methyl-1H-indol-4-yl)methyl)piperidin-2-yl)benzoic acid] |  | 100 to 200 nM | 
COc1cc(C)c2[nH]ccc2c1CN1CC[C@H](n2cnc(C(F)(F)F)n2)C[C@H]1c1ccc(C(=O)O)cc1 (racemic) [Example 5, (±)-trans-4-(1-((5-methoxy-7-methyl-1H-indol-4-yl)methyl)-4-(3-(trifluoromethyl)-1H-1,2,4-triazol-1-yl)piperidin-2-yl)benzoic acid] |  | > 500 nM | 
